Results: PubChem BioAssay (NCI)
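Compound exposure: 48 hours, 5 concentrations, 96-well plates. At the TGI there is no net growth.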

Assays:
Experiment in all cases: inhibition of tumour cell growth, NCI panel, 48 h
[1] = system: RXF 393 renal
[2] = system: LXFL 529 NSCLC
[3] = system: NCI-H23 lung
[4] = system: DLD-1 colon
[5] = system: HCT-116 colon
[6] = system: IGROV1 ovarian
[7] = system: UO-31 renal
[8] = system: DMS 114 small cell lung
[9] = system: KM20L2 colon
[10] = system: OVCAR-5 ovarian
[11] = system: DMS 273 small cell lung
[12] = system: HL-60(TB) leukemia
[13] = system: XF 498 CNS
[14] = system: MALME-3M melanoma
[15] = system: NCI-H522 lung
[16] = system: SNB-75 CNS
[17] = system: CAKI-1 renal
[18] = system: SK-OV-3 ovarian
[19] = system: SK-MEL-5 melanoma
[20] = system: OVCAR-4 ovarian
[21] = system: U251 CNS
[22] = system: SNB-19 CNS
[23] = system: NCI-H460 lung
[24] = system: KM12 colon
[25] = system: CCRF-CEM leukemia
[26] = system: COLO 205 colon
[27] = system: NCI-H226 lung
[28] = system: TK-10 renal
[29] = system: A498 renal
[30] = system: SNB-78 CNS
[31] = system: OVCAR-3 ovarian
[32] = system: SF-539 CNS
[33] = system: HOP-62 NSCLC
[34] = system: K-562 leukemia
[35] = system: UACC-62 melanoma
[36] = system: RPMI-8226 leukemia
[37] = system: HOP-92 NSCLC
[38] = system: SN12C renal
[39] = system: M14 melanoma
[40] = system: EKVX NSCLC
[41] = system: 786-0 renal
[42] = system: HCC-2998 colon
[43] = system: ACHN renal
[44] = system: MOLT-4 leukemia
[45] = system: SF-295 CNS
[46] = system: HT29 colon
[47] = system: LOX IMVI melanoma
[48] = system: SF-268 CNS
[49] = system: UACC-257 melanoma
[50] = system: SK-MEL-2 melanoma
[51] = system: HCT-15 colon
[52] = system: SW-620 colon
[53] = system: A549 NSCLC
[54] = system: M19-MEL melanoma
[55] = system: SK-MEL-28 melanoma
[56] = system: OVCAR-8 ovarian
[57] = system: SR leukemia

SMILES: CCN(CCCl)CCCCCNc1c2ccccc2nc2ccc(OC)cc12
- TGI [1]: 2.4 µM
- TGI [2]: 1.93 µM
- TGI [3]: 1.55 µM
- TGI [4]: 2.95 µM
- TGI [5]: 1.43 µM
- TGI [6]: 4.24 µM
- TGI [7]: 12.7 µM
- TGI [8]: 1.91 µM
- TGI [9]: 4.38 µM
- TGI [10]: 5.39 µM
- TGI [11]: 1.78 µM
- TGI [12]: 0.266 µM
- TGI [13]: 1.36 µM
- TGI [14]: 5.93 µM
- TGI [15]: 2.03 µM
- TGI [16]: 3.02 µM
- TGI [17]: 16.7 µM
- TGI [18]: 3.62 µM
- TGI [19]: 2.69 µM
- TGI [20]: 3.42 µM
- TGI [21]: 2.23 µM
- TGI [22]: 3.78 µM
- TGI [23]: 1.51 µM
- TGI [24]: 1.81 µM
- TGI [25]: 2.78 µM
- TGI [26]: 3.03 µM
- TGI [27]: 2.3 µM
- TGI [28]: 44.3 µM
- TGI [29]: 3.52 µM
- TGI [30]: 8.57 µM
- TGI [31]: 7.28 µM
- TGI [32]: 2.65 µM
- TGI [33]: 8.38 µM
- TGI [34]: 1.06 µM
- TGI [35]: 1.8 µM
- TGI [36]: 1.47 µM
- TGI [37]: 3.21 µM
- TGI [38]: 1.78 µM
- TGI [39]: 9.74 µM
- TGI [40]: 18.1 µM
- TGI [41]: 1.63 µM
- TGI [42]: 2.94 µM
- TGI [43]: 3.09 µM
- TGI [44]: 0.279 µM
- TGI [45]: 9.68 µM
- TGI [46]: 2.94 µM
- TGI [47]: 1.09 µM
- TGI [48]: 5.98 µM
- TGI [49]: 10.8 µM
- TGI [50]: 2.7 µM
- TGI [51]: 10.9 µM
- TGI [52]: 1.63 µM
- TGI [53]: 4.4 µM
- TGI [54]: 2.15 µM
- TGI [55]: 12.1 µM
- TGI [56]: 1.96 µM

SMILES: Nc1ccc2nc(Nc3ccc(Cl)c(Cl)c3)cnc2c1
- TGI [3]: 66.5 µM
- TGI [4]: > 100 µM
- TGI [5]: 33.4 µM
- TGI [57]: 35.5 µM
- TGI [7]: 29.4 µM
- TGI [8]: 24.5 µM
- TGI [10]: 46.8 µM
- TGI [11]: 34.1 µM
- TGI [12]: 31.6 µM
- TGI [14]: 35.3 µM
- TGI [15]: 21.6 µM
- TGI [16]: > 100 µM
- TGI [17]: > 100 µM
- TGI [19]: > 100 µM
- TGI [20]: 60.4 µM
- TGI [21]: 44.2 µM
- TGI [22]: 38.7 µM
- TGI [23]: 45.3 µM
- TGI [24]: 32.3 µM
- TGI [25]: 9.57 µM
- TGI [26]: 34.9 µM
- TGI [27]: 41.8 µM
- TGI [28]: 60.6 µM
- TGI [30]: > 100 µM
- TGI [31]: 36.7 µM
- TGI [32]: 64.5 µM
- TGI [33]: 36.2 µM
- TGI [34]: 82.5 µM
- TGI [36]: 54.4 µM
- TGI [38]: 33 µM
- TGI [39]: 27.4 µM
- TGI [40]: > 100 µM
- TGI [41]: 33.1 µM
- TGI [42]: 29.8 µM
- TGI [43]: 91.9 µM
- TGI [44]: 97.7 µM
- TGI [46]: 36.9 µM
- TGI [47]: 28 µM
- TGI [48]: 37.8 µM
- TGI [49]: 71 µM
- TGI [50]: 37.7 µM
- TGI [51]: 46.5 µM
- TGI [52]: 33.7 µM
- TGI [53]: 41.9 µM
- TGI [54]: 39.2 µM
- TGI [55]: 36.8 µM
- TGI [56]: > 100 µM
